Our source for the IC50 values is patent US11505547B2, “Compounds” (STEP PHARMA S.A.S., priority 2017, dated 2022).

The target in this assay is T1, human CTPS1 (Homo sapiens, UniProt P17812).
T1 construct: purchased Proteros biostructures GmbH
T1 sequence (P17812 1-591): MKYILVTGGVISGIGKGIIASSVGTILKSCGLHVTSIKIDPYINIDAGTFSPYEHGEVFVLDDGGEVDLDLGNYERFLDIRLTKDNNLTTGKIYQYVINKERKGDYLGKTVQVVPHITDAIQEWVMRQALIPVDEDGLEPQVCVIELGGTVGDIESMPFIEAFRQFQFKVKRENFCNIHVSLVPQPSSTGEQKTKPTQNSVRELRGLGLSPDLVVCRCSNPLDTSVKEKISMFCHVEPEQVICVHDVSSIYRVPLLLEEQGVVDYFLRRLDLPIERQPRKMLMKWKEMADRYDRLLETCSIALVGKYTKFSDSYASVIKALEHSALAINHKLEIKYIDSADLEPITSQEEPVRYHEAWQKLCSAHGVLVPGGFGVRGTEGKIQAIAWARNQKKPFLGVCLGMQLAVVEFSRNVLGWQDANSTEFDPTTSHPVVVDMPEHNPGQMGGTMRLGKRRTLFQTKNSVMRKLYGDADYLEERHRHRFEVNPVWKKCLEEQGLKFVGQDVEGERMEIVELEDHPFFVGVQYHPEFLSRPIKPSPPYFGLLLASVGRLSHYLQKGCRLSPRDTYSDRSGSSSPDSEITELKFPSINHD
Put plainly: Human CTPS1 enzyme inhibition, ADP-Glo Max assay. It counts as biochemical. Particulars: human full length CTPS1, read-out: CTPS1 (Human CTPS1 Enzyme Inhibition data grouped by potency range, IC50). As for the experimental part:
Biological Example 1—Human CTPS1 Enzyme Inhibition
The enzyme inhibitory activities of compounds invented against the target of interest were determined using the ADP-Glo™ Max assay (Promega, UK). Assays for human CTPS1 were performed in 1× assay buffer containing 50 mM Tris, 10 mM MgCl2, 0.01% Tween-20, pH to 8.0 accordingly. Finally, immediately before use, L-cysteine was added to the 1× assay buffer to a final concentration of 2 mM. All reagents are from Sigma-Aldrich unless specified otherwise. Human full length active C-terminal FLAG-Hiss-tag CTPS1 (UniProtKB-P17812, CTPS[1-591]-[…]) was obtained from Proteros biostructures GmbH.
3× human CTPS1 protein was prepared in 1× assay buffer to the final working protein concentration required for the reaction. A 2 uL volume per well of 3× human CTPS1 protein was mixed with 2 uL per well of 3× test compound (compound prepared in 1× assay buffer to an appropriate final 3× compound concentration respective to the concentration response curve designed for the compounds under test) for 10 minutes at 25° C. The enzymatic reaction was then initiated by addition of a 2 uL per well volume of a pre-mixed substrate mix (UltraPure ATP from ADP-Glo™ Max kit (0.31 mM), GTP (0.034 mM), UTP (0.48 mM) and L-glutamine (0.186 mM)) and the mixture was incubated for an appropriate amount of time within the determined linear phase of the reaction at 25° C. under sealed plate conditions with constant agitation at 500 revolutions per minute (rpm). ADP-GIo™ Max reagent was added for 60 minutes (6 uL per well) and subsequently ADP-Glo™ Max development reagent was added for 60 minutes (12 uL per well) prior to signal detection in a microplate reader (EnVision® Multilabel Reader, Perkin Elmer). Following each reagent addition over the course of the assay, assay plates were pulse centrifuged for 30 seconds at 500 rpm.
In all cases, the enzyme converts ATP to ADP and the ADP-Glo™ Max reagent subsequently depletes any remaining endogenous ATP in the reaction system. The ADP-Glo™ Max detection reagent converts the ADP that has been enzymatically produced back into ATP and using ATP as a substrate together with luciferin for the enzyme luciferase, light is generated which produces a detectable luminescence. […] The percentage inhibition produced by each concentration of compound was calculated using the equation shown below: […]
Percentage inhibition was then plotted against compound concentration, and the 50% inhibitory concentration (IC50) was determined from the resultant concentration-response curve.
A general note: In ADP-Glo the light output rises with the ADP produced.
On to `CC(C)(NC(=O)c1ccc(-c2cncc(Cl)n2)cn1)c1csc(NS(=O)(=O)C2CC2)n1` [Example R25, 5-(6-chloropyrazin-2-yl)-N-(2-(2-(cyclopropanesulfonamido)thiazol-4-yl)propan-2-yl)picolinamide], for which the IC50 is 0.1 to 1 µM.
As to `CCC(NC(=O)c1ccc(-c2cncc(C)n2)cc1)c1csc(NS(=O)(=O)C2CC2)n1` (racemic) [Example R66, N-(1-(2-(cyclopropanesulfonamido)thiazol-4-yl)propyl)-4-(6-methylpyrazin-2-yl)benzamide], the IC50 was 0.1 to 1 µM.
For `CCOc1cncc(-c2ccc(C(=O)NC3(c4csc(NS(=O)(=O)C5CC5)n4)CC3)nc2)n1` [Example R80, N-(1-(2-(cyclopropanesulfonamido)thiazol-4-yl)cyclopropyl)-5-(6-ethoxypyrazin-2-yl)picolinamide], the IC50 is less than 0.1 µM.
`CCC(NC(=O)c1ccc(-c2cncc(Cl)n2)cc1)c1csc(NS(=O)(=O)C2CC2)n1` (racemic) [Example R65, 4-(6-chloropyrazin-2-yl)-N-(1-(2-(cyclopropanesulfonamido)thiazol-4-yl)propyl)benzamide]: the IC50 is less than 0.1 µM.
For the molecule `CCC(NC(=O)c1ccc(-c2cncc(C(F)(F)F)c2)cc1)c1csc(NS(=O)(=O)C2CC2)n1` (single isomer, unassigned) [Example R4, N-(1-(2-(cyclopropanesulfonamido)thiazol-4-yl)propyl)-4-(5-(trifluoromethyl)pyridin-3-yl)benzamide], the IC50 was less than 0.1 µM.
As to `Cc1cncc(-c2ccc(C(=O)NC(C)(C)c3csc(NS(=O)(=O)C4CC4)n3)cc2)c1` [Example R37, N-(2-(2-(cyclopropanesulfonamido)thiazol-4-yl)propan-2-yl)-4-(5-methylpyridin-3-yl)benzamide], the IC50 is less than 0.1 µM.
For the molecule `Cc1cncc(-c2ccc(C(=O)NC(C)(C)c3csc(NS(=O)(=O)C4CC4)n3)cc2)n1` [Example R53, N-(2-(2-(cyclopropanesulfonamido)thiazol-4-yl)propan-2-yl)-4-(6-methylpyrazin-2-yl)benzamide], the IC50 fell in the range of 0.1 to 1 µM.
With `CCOc1cncc(-c2ccc(C(=O)NC(C)(C)c3csc(NS(=O)(=O)C4CC4)n3)nc2)n1` [Example R26, N-(2-(2-(cyclopropanesulfonamido)thiazol-4-yl)propan-2-yl)-5-(6-ethoxypyrazin-2-yl)picolinamide] the figure was 0.1 to 1 µM; with `CCOc1cncc(-c2ccc(C(=O)NC3(c4csc(NS(=O)(=O)C5CC5)n4)CC3)c(F)c2)n1` [Example R82, N-(1-(2-(cyclopropanesulfonamido)thiazol-4-yl)cyclopropyl)-4-(6-ethoxypyrazin-2-yl)-2-fluorobenzamide], less than 0.1 µM; with `CC(C)(NC(=O)c1ccc(-c2cncc(F)c2)cc1F)c1csc(NS(=O)(=O)C2CC2)n1` [Example R31], 0.1 to 1 µM.
As for `CC(C)Oc1cncc(-c2ccc(C(=O)NC(C)(C)c3csc(NS(=O)(=O)C4CC4)n3)c(F)c2)n1` [Example R43, N-(2-(2-(cyclopropanesulfonamido)thiazol-4-yl)propan-2-yl)-2-fluoro-4-(6-isopropoxypyrazin-2-yl)benzamide], the IC50 is less than 0.1 µM.
On to `CC(C)(NC(=O)c1ccc(-c2cncc(OCC(F)(F)F)n2)cc1)c1csc(NS(=O)(=O)C2CC2)n1` [Example R57, N-(2-(2-(cyclopropanesuIfonamido)thiazol-4-yl)propan-2-yl)-4-(6-(2,2,2-trifluoroethoxy)pyrazin-2-yl)benzamide], for which the IC50 is 0.1 to 1 µM.
On to `Cc1cc(-c2cncc(C(F)(F)F)n2)ccc1C(=O)NC(C)(C)c1csc(NS(=O)(=O)C2CC2)n1` [Example R45, N-(2-(2-(cyclopropanesulfonamido)thiazol-4-yl)propan-2-yl)-2-methyl-4-(6-(trifluoromethyl)pyrazin-2-yl)benzamide], for which the half-maximal inhibitory concentration (IC50) is 0.1 to 1 µM.
For the molecule `CCOc1cncc(-c2ccc(C(=O)NC(C)(C)c3csc(NS(=O)(=O)C4CC4)n3)c(OC)c2)n1` [Example R7, N-(2-(2-(cyclopropanesulfonamido)thiazol-4-yl)propan-2-yl)-4-(6-ethoxypyrazin-2-yl)-2-methoxybenzamide], the IC50 lay within 0.1 to 1 µM.
Turning to `CCC(NC(=O)c1ccc(-c2cncc(F)c2)cc1)c1csc(NS(=O)(=O)C2CC2)n1` (racemic) [Example R59, N-(1-(2-(cyclopropanesulfonamido)thiazol-4-yl)propyl)-4-(5-fluoropyridin-3-yl)benzamide], the IC50 lay within 0.1 to 1 µM.
Turning to `CC(C)Oc1cncc(-c2ccc(C(=O)NC(C)(C)c3csc(NS(=O)(=O)C4CC4)n3)cc2)n1` [Example R56, N-(2-(2-(cyclopropanesulfonamido)thiazol-4-yl)propan-2-yl)-4-(6-isopropoxypyrazin-2-yl)benzamide], the IC50 is less than 0.1 µM.
Turning to `COc1cc(-c2cncc(Cl)n2)ccc1C(=O)NC(C)(C)c1csc(NS(=O)(=O)C2CC2)n1` [Example R49, 4-(6-chloropyrazin-2-yl)-N-(2-(2-(cyclopropanesulfonamido)thiazol-4-yl)propan-2-yl)-2-methoxybenzamide], the 50% inhibitory concentration (IC50) was in the range of 0.1 to 1 µM.
In the case of `CCC(CC)(NC(=O)c1ccc(-c2cccnc2)cc1)c1csc(NS(=O)(=O)C2CC2)n1` [Example R18, N-(3-(2-(cyclopropanesulfonamido)thiazol-4-yl)pentan-3-yl)-4-(pyridin-3-yl)benzamide], the IC50 was in the range of 0.1 to 1 µM.
As for `CCOc1cncc(-c2ccc(C(=O)NC(C)(C)c3nc(NS(=O)(=O)C4CC4)sc3C)nc2)n1` [Example R72, N-(2-(2-(cyclopropanesuIfonamido)-5-methylthiazol-4-yl)propan-2-yl)-5-(6-ethoxypyrazin-2-yl)picolinamide], the figure is 1 to 10 µM; as for `CC(C)(NC(=O)c1ccc(-c2ccccn2)nc1)c1csc(NS(=O)(=O)C2CC2)n1` [Example R27, N-(2-(2-(cyclopropanesuIfonamido)thiazol-4-yl)propan-2-yl)-[2,2′-bipyridine]-5-carboxamide], 10 to 21 µM.
For `O=C(NCc1csc(NS(=O)(=O)C2CC2)n1)c1ccc(-c2ccccc2)cc1` [Example R9, N-((2-(cyclopropanesulfonamido)thiazol-4-yl)methyl)-[1,1′-biphenyl]-4-carboxamide], the IC50 lay in the range of 1 to 10 µM.
Turning to `CCOc1cncc(-c2ccc(C(=O)NC(C)c3csc(NS(=O)(=O)C4CC4)n3)c(F)c2)n1` (centres unmarked) [Example R91, N-(1-(2-(cyclopropanesulfonamido)thiazol-4-yl)ethyl)-4-(6-ethoxypyrazin-2-yl)-2-fluorobenzamide], the IC50 is less than 0.1 µM.
Consider `CC(C)(NC(=O)c1ccc(-c2cncc(Cl)c2)cc1F)c1csc(NS(=O)(=O)C2CC2)n1` [Example R30], for which the IC50 was 0.1 to 1 µM.
Take `CCOc1cncc(-c2ccc(C(=O)N(C)C(CC)c3csc(NS(=O)(=O)C4CC4)n3)c(F)c2)n1` (racemic) [Example R63, N-(1-(2-(cyclopropanesulfonamido)thiazol-4-yl)propyl)-4-(6-ethoxypyrazin-2-yl)-2-fluoro-N-methylbenzamide]: the IC50 was in the range of 0.1 to 1 µM.
Consider `CCC(NC(=O)c1ccc(-c2cccnc2)cc1)c1csc(NS(=O)(=O)C2CC2)n1` (racemic) [Example R61, N-(1-(2-(cyclopropanesulfonamido)thiazol-4-yl)propyl)-4-(pyridin-3-yl)benzamide], for which the IC50 fell in the range of 0.1 to 1 µM.
Take `CC(C)(NC(=O)c1ccc(-c2cncc(C(F)(F)F)c2)cc1F)c1csc(NS(=O)(=O)C2CC2)n1` [Example R29]: the IC50 is less than 0.1 µM.

By IC50 is commonly meant the concentration that inhibits the measured activity by half.
